The values below are quoted from earlier work in US10125164B2, “Process for preparing D-arginyl-2,6-dimethyl-L-tyrosyl-L-lysyl-L-phenylalaninamide” (FLAMMA S.P.A., priority 2014, dated 2018).

Where a SMILES comes first, the peptide text is derived from it. [ ]: non-standard residue; d: D form. Dmt = Cc1cc(O)cc(C)c1C[C@H](N)C(=O)O

For series [1], the system named is unilateral ureteral obstruction. The settings on record: rats, intraperitoneal 1 and 3 mg/kg, 1 day prior to obstruction and every day thereafter for 14 days.
Series [2] has as its system G93A mouse model of amyotrophic lateral sclerosis. The settings on record: 5 mg/kg/day i.p. starting at 30 days of age.
A further series has as its system mouse pancreatic islets. The settings on record: 3 mg/kg i.p. qd for 2 weeks.
For series [3], the system named is inner mitochondrial membrane.
Another series relates to N2A neuronal cell line. The settings on record: compound <1 nM.
A further series deals with mu-opioid receptor (Homo sapiens, UniProt P35372).
mu-opioid receptor, sequence (P35372 whole entry): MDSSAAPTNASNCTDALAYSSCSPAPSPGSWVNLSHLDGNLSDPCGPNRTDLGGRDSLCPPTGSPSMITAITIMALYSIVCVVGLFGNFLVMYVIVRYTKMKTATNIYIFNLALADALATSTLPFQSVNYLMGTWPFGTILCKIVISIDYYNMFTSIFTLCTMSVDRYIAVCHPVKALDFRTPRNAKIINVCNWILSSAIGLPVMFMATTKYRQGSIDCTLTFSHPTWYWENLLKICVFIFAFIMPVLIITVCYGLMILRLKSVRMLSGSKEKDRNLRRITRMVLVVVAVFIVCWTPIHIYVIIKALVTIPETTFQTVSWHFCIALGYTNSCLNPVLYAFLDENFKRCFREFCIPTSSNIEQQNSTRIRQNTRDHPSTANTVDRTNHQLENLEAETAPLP
The subject of series [4] is SH-SY5Y neuronal cell line. Particulars: compound <1 nM.

As to `Cc1cc(O)cc(C)c1C[C@H](NC(=O)[C@H](N)CCCNC(=N)N)C(=O)N[C@@H](CCCCN)C(=O)N[C@@H](Cc1ccccc1)C(N)=O` [D-Arginyl-2,6-dimethyl-L-tyrosyl-L-lysyl-L-phenylalaninamide] (H-[dR][Dmt]KF-NH2), in series [1], the interstitial fibrosis entry is recorded as “significantly decreased”, the macrophage infiltration entry was “significantly decreased” and the tubular damage result is recorded as “significantly decreased”. For the same molecule, the disease onset entry in series [2] is on record as “significant delay”. Further, in the series on mouse pancreatic islets, the “apoptosis in pancreatic islets caused by streptozotocin” value was “prevented” and the “insulin reduction in pancreatic islets caused by streptozotocin” value was “prevented”. Also, in series [3], the antioxidant activity entry is reported as “showed antioxidant activity”. In the series on N2A neuronal cell line, the “intracellular reactive oxygen species” value is “significantly reduced”, the mitochondrial potential entry is given as “increased” and the tBHP-induced apoptosis entry is listed as “prevented”. In addition, on mu-opioid receptor, the “mu-opioid receptor agonist activity” value is recorded as “does not have mu-opioid receptor agonist activity”. In series [4], the “intracellular reactive oxygen species” value is reported as “significantly reduced”, the mitochondrial potential entry is listed as “increased” and the tBHP-induced apoptosis result was “prevented”.
